Converted amounts (≈) assume the structure as drawn.
Experiments:
Type in all cases: functional
[1] = test system: Staphylococcus aureus; test: Antibacterial activity against methicillin susceptible Staphylococcus aureus clinical isolate 5 assessed as inhibition of bacterial growth incubated overnight by CLSI protocol based assay; details: read-out: MIC100
[2] = test system: Staphylococcus aureus; test: Bactericidal activity against methicillin susceptible Staphylococcus aureus clinical isolate 2 incubated overnight by CLSI protocol based assay; details: read-out: MBC>99.9
[3] = test system: Staphylococcus aureus; test: Antibacterial activity against methicillin resistant Staphylococcus aureus clinical isolate 5 assessed as inhibition of bacterial growth incubated overnight by CLSI protocol based assay; details: read-out: MIC100
[4] = test system: Staphylococcus aureus; test: Antibacterial activity against Staphylococcus aureus assessed as inhibition of bacterial growth
[5] = test system: Staphylococcus aureus; test: Antibacterial activity against methicillin resistant Staphylococcus aureus clinical isolate 1 assessed as inhibition of bacterial growth incubated overnight by CLSI protocol based assay; details: read-out: MIC100
[6] = test system: Staphylococcus aureus; test: Antibacterial activity against methicillin resistant Staphylococcus aureus clinical isolate 3 assessed as inhibition of bacterial growth incubated overnight by CLSI protocol based assay; details: read-out: MIC100
[7] = test system: Staphylococcus aureus; test: Bactericidal activity against methicillin susceptible Staphylococcus aureus clinical isolate 4 incubated overnight by CLSI protocol based assay; details: read-out: MBC>99.9
[8] = test system: Staphylococcus aureus; test: Bactericidal activity against methicillin resistant Staphylococcus aureus clinical isolate 4 incubated overnight by CLSI protocol based assay; details: read-out: MBC>99.9
[9] = test system: Staphylococcus aureus; test: Antibacterial activity against Staphylococcus aureus ATCC 29213 assessed as inhibition of bacterial growth incubated overnight by CLSI protocol based assay; details: read-out: MIC100
[10] = test system: Pseudomonas aeruginosa; test: Antibacterial activity against Pseudomonas aeruginosa ATCC 27853 assessed as inhibition of bacterial growth incubated overnight by CLSI protocol based assay; details: read-out: MIC100
[11] = test system: Staphylococcus aureus; test: Bactericidal activity against methicillin resistant Staphylococcus aureus clinical isolate 1 incubated overnight by CLSI protocol based assay; details: read-out: MBC>99.9
[12] = test system: Staphylococcus aureus; test: Bactericidal activity against methicillin susceptible Staphylococcus aureus clinical isolate 1 incubated overnight by CLSI protocol based assay; details: read-out: MBC>99.9
[13] = test system: Pseudomonas aeruginosa; test: Bactericidal activity against Pseudomonas aeruginosa ATCC 27853 incubated overnight by CLSI protocol based assay; details: read-out: MBC>99.9
[14] = test system: Staphylococcus aureus; test: Bactericidal activity against Staphylococcus aureus ATCC 29213 incubated overnight by CLSI protocol based assay; details: read-out: MBC>99.9
[15] = test system: Staphylococcus aureus; test: Antibacterial activity against methicillin resistant Staphylococcus aureus clinical isolate 2 assessed as inhibition of bacterial growth incubated overnight by CLSI protocol based assay; details: read-out: MIC100
[16] = test system: Staphylococcus aureus; test: Antibacterial activity against methicillin susceptible Staphylococcus aureus clinical isolate 2 assessed as inhibition of bacterial growth incubated overnight by CLSI protocol based assay; details: read-out: MIC100
[17] = test system: Staphylococcus aureus; test: Antibacterial activity against methicillin susceptible Staphylococcus aureus clinical isolate 3 assessed as inhibition of bacterial growth incubated overnight by CLSI protocol based assay; details: read-out: MIC100
[18] = test system: Staphylococcus aureus; test: Bactericidal activity against methicillin susceptible Staphylococcus aureus clinical isolate 5 incubated overnight by CLSI protocol based assay; details: read-out: MBC>99.9
[19] = test system: Escherichia coli; test: Bactericidal activity against Escherichia coli ATCC 25922 incubated overnight by CLSI protocol based assay; details: read-out: MBC>99.9
[20] = test system: Staphylococcus aureus; test: Antibacterial activity against methicillin resistant Staphylococcus aureus clinical isolate 4 assessed as inhibition of bacterial growth incubated overnight by CLSI protocol based assay; details: read-out: MIC100
[21] = test system: Escherichia coli; test: Antibacterial activity against Escherichia coli ATCC 25922 assessed as inhibition of bacterial growth incubated overnight by CLSI protocol based assay; details: read-out: MIC100
[22] = test system: Staphylococcus aureus; test: Antibacterial activity against methicillin susceptible Staphylococcus aureus clinical isolate 1 assessed as inhibition of bacterial growth incubated overnight by CLSI protocol based assay; details: read-out: MIC100
[23] = test system: Staphylococcus aureus; test: Bactericidal activity against methicillin resistant Staphylococcus aureus clinical isolate 5 incubated overnight by CLSI protocol based assay; details: read-out: MBC>99.9
[24] = test system: Staphylococcus aureus; test: Bactericidal activity against methicillin resistant Staphylococcus aureus clinical isolate 2 incubated overnight by CLSI protocol based assay; details: read-out: MBC>99.9
[25] = test system: Staphylococcus aureus; test: Bactericidal activity against methicillin resistant Staphylococcus aureus clinical isolate 3 incubated overnight by CLSI protocol based assay; details: read-out: MBC>99.9
[26] = test system: Staphylococcus aureus; test: Bactericidal activity against methicillin susceptible Staphylococcus aureus clinical isolate 3 incubated overnight by CLSI protocol based assay; details: read-out: MBC>99.9
[27] = test system: Staphylococcus aureus; test: Antibacterial activity against methicillin susceptible Staphylococcus aureus clinical isolate 4 assessed as inhibition of bacterial growth incubated overnight by CLSI protocol based assay; details: read-out: MIC100

For Brc1ccc2c(C(C3=NC[C@H](c4c[nH]c5cc(Br)ccc45)N3)c3c[nH]c4cc(Br)ccc34)c[nH]c2c1, the MIC [1] was 2 µg/mL (≈ 3 µM), the MBC [2] was 2 µg/mL (≈ 3 µM) and the MIC [3] was 1 µg/mL (≈ 1.5 µM). For the same molecule, the MIC [4] was 1 µg/mL (≈ 1.5 µM), the MIC [5] was 2 µg/mL (≈ 3 µM) and the MIC [6] was 2 µg/mL (≈ 3 µM). It also gave an MBC [7] of 128 µg/mL (≈ 192 µM), an MBC [8] of 16 µg/mL (≈ 24 µM) and an MIC [9] of 2 µg/mL (≈ 3 µM). For the same molecule, the MIC [10] was > 128 µg/mL, the MBC [11] was 128 µg/mL (≈ 192 µM) and the MBC [12] was 16 µg/mL (≈ 24 µM). For the same molecule, the MBC [13] was > 128 µg/mL, the MBC [14] was 4 µg/mL (≈ 6 µM) and the MIC [15] was 1 µg/mL (≈ 1.5 µM). It also gave an MIC [16] of 2 µg/mL (≈ 3 µM), an MIC [17] of 2 µg/mL (≈ 3 µM) and an MBC [18] of 64 µg/mL (≈ 96.1 µM). The MBC [19] was 32 µg/mL (≈ 48 µM), the MIC [20] was 2 µg/mL (≈ 3 µM) and the MIC [21] was 16 µg/mL (≈ 24 µM). The MIC [22] was 1 µg/mL (≈ 1.5 µM), the MBC [23] was 2 µg/mL (≈ 3 µM) and the MBC [24] was 16 µg/mL (≈ 24 µM). The MBC [25] was 2 µg/mL (≈ 3 µM), the MBC [26] was 16 µg/mL (≈ 24 µM) and the MIC [27] was 2 µg/mL (≈ 3 µM).

For O=C(C1=NC[C@H](c2c[nH]c3cc(Br)ccc23)N1)c1c[nH]c2cc(Br)ccc12 (racemic), the MIC [1] was 2 µg/mL (≈ 4.11 µM), the MBC [2] was > 128 µg/mL and the MIC [3] was 2 µg/mL (≈ 4.11 µM). For the same molecule, the MIC [5] was 2 µg/mL (≈ 4.11 µM), the MIC [6] was 2 µg/mL (≈ 4.11 µM) and the MBC [7] was > 128 µg/mL. For the same molecule, the MIC [9] was 2 µg/mL (≈ 4.11 µM), the MIC [10] was > 128 µg/mL and the MBC [11] was > 128 µg/mL. The MBC [12] was 32 µg/mL (≈ 65.8 µM), the MBC [13] was > 128 µg/mL and the MBC [14] was 8 µg/mL (≈ 16.5 µM). The MIC [15] was 2 µg/mL (≈ 4.11 µM), the MIC [16] was 2 µg/mL (≈ 4.11 µM) and the MIC [17] was 2 µg/mL (≈ 4.11 µM). The MBC [18] was 128 µg/mL (≈ 263 µM), the MBC [19] was > 128 µg/mL and the MIC [20] was 2 µg/mL (≈ 4.11 µM). For the same molecule, the MIC [21] was > 128 µg/mL, the MIC [22] was 2 µg/mL (≈ 4.11 µM) and the MBC [23] was 64 µg/mL (≈ 132 µM). The MBC [24] was 16 µg/mL (≈ 32.9 µM), the MBC [25] was 4 µg/mL (≈ 8.23 µM) and the MBC [26] was > 128 µg/mL. For the same molecule, the MIC [27] was 2 µg/mL (≈ 4.11 µM).

Source: ChEMBL document CHEMBL5532684, “Total Synthesis and Antibacterial Activity of Marine Tris-indole Alkaloid Tulongicin A” (2024)
